This note sets out measurements from patent publication US10501456B2, “Therapeutic agents for the treatment of HBV infection” (Newave Pharmaceutical Inc., priority 2016, dated 2019).

Counter-ions that a name gives are not always drawn. Where only a bound is given, the exact number is not on record here.

The test system of data set [1] is extracellular HBV DNA. Nature of the data set: HBV DNA assay (real-time qPCR/TaqMan, HepG2.2.15 cells). Type of data set: cell-based. The note with it: for EC50: Hepatitis B virus, 144 h, six days, supernatant HBV DNA copy number, read-out: EC50 (reduction in HBV DNA levels). The procedure:
The assay employs real-time qPCR (TaqMan) to directly measure extracellular HBV DNA copy number. HepG2.2.15 cells were plated in 96-well microtiter plates. Only the interior wells were utilized to reduce “edge effects” observed during cell culture, the exterior wells were filled with complete medium to help minimize sample evaporation. On the following day, the HepG2.2.15 cells were washed and the medium was replaced with complete medium containing various concentrations of a test compound in triplicate. 3TC was used as the positive control, while media alone was added to cells as a negative control (virus control, VC). Three days later, the culture medium was replaced with fresh medium containing the appropriately diluted drug. Six days following the initial administration of the test compound, the cell culture supernatant was collected, treated with pronase and then used in a real-time qPCR/TaqMan assay to determine HBV DNA copy numbers. TDF (tenofovir disoproxil fumarate) is used as a positive control reference. Antiviral activity was calculated from the reduction in HBV DNA levels (IC50).
(In general: Real-time PCR tracks product formation cycle by cycle.)

Data set [2] in a line: Rat PK study. The following applies: for AUC(0-t) / Cmax / bioavailability / half-life: female, Sprague-Dawley, plasma, oral dosing; for half-life: read-out: t½ (converted). Type of data set: in vivo, female Sprague-Dawley rats. The procedure: The pharmacokinetics of compounds were evaluated in female Sprague-Dawley rats via Intravenous and Oral Administration. The iv dose was administered as a slow bolus in the Jugular vein, and oral doses were administered by gavage. The fomulaltion for IV dosing is 20% DMSO and 60% PEG 400 in water, and the PO formulation (suspension) is 1% MC, 0.4% Kolliphor EL in water. The PK time point for the IV arm is 5, 15, 30 min, 1, 2, 4, 6, 8, 12, 24 hours post dose, and for PO arm is 15, 30 min, 1, 2, 4, 6, 8, 12, 24 hours post dose. Approximately 0.2 mL blood will be collected at each time point. Blood of each sample will be transferred into plastic micro centrifuge tubes containing EDTA-K2 and collect plasma within 15 min by centrifugation at 4000 g for 5 minutes in a 4° C. centrifuge. Plasma samples will be stored in polypropylene tubes. The samples will be stored in a freezer at −75±15° C. prior to analysis. Concentrations of compounds in the plasma samples will be analyzed using a LC-MS/MS method. WinNonlin (Phoenix™, version 6.1) or other similar software will be used for pharmacokinetic calculations. The following pharmacokinetic parameters will be calculated, whenever possible from the plasma concentration versus time data: IV administration: C0, CL, Vd, T1/2, AUCinf, AUClast, MRT, Number of Points for Regression; PO administration: Cmax, Tmax, T1/2, AUCinf, AUClast, F %, Number of Points for Regression. The pharmacokinetic data will be described using descriptive statistics such as mean, standard deviation. Additional pharmacokinetic or statistical analysis may be performed at the discretion of the contributing scientist, and will be documented in the data summary

Data set [3] is described as follows: Compound cytotoxicity assay (CellTiter-Glo). Type of data set: cell-based. The following applies: human; HepG2.2.15 cells, 4 day incubation, top conc. 150 μM. The procedure: (§1) Compounds are diluted with DMSO in 3-fold, 11-point scheme: top conc. of test compound is 30 mM. Add 0.25 μL titrated compounds with Echo 550 to 384-well cytotoxicity assay plates. Add 50 μl HepG2.2.15 cells to each well (4,000 cells per well). The final top conc. is 150 μM after cell addition. For solvent control well (0% effect, ZPE), 0.25 μL DMSO is added (final DMSO conc. is 0.5%). Incubate for 4 days in 37⊏ C, 5% CO2 incubator. After
(§2) 4 day incubation compound cytotoxicity is measured by Promega CellTiter-Glo reagents, briefly: • Equilibrate the Celltiter-Glo reagent to room temperature • Equilibrate the cytotoxicity plates to RT for 20 minutes. • Add 50 μl of CellTiter-Glo Reagent to each well. • Shake 2 minutes on a shaker. • Incubate at room temperature in dark for 10 minutes. • Read plate on Envision Plate reader (0.1 sec integration time/well)
(§3) Such assays, carried out with a range of doses of test compounds, allow the determination of the cellular IC50 of the compounds of the present invention.
(In ATP-based viability assays light output follows the ATP content of the culture.)

Data set [4] relates to HepG2.2.15 cells. Nature of the data set: Compound cytotoxicity assay (CellTiter-Glo). Type of data set: cell-based. The following applies: compared with Compound 203 in WO2015113990. The procedure: as §1, §2, §3
Data set [5] addresses hERG (Homo sapiens, UniProt Q12809). Kind of data set: hERG assay (automated patch-clamp). Type of data set: biochemical. The following applies: for IC10 (10% inhibitory concentration, hERG tail current): automated patch-clamp. From the text: The human ether-a-go-go related gene (hERG) encodes the inward rectifying voltage gated potassium channel in the heart (IKr) which is involved in cardiac repolarization. Inhibition of the hERG current causes QT interval prolongation resulting in potentially fatal ventricular tachyarrhythmia called Torsade de Pointes. A number of drugs have been withdrawn from late stage clinical trials due to these cardiotoxic effects, therefore it is important to identify inhibitors early in drug discovery.
The degree of inhibition (%) was obtained by measuring the tail current amplitude, which is induced by a one second test pulse to −40 mV after a two second pulse to +20 mV, before and after drug incubation (the difference current was normalized to control and multiplied by 100 to obtain the percent of inhibition). Concentration (log) response curves were fitted to a logistic equation (three parameters assuming complete block of the current at very high test compound concentrations) to generate estimates of the 10% inhibitory concentration (IC10). The concentration-response relationship of each compound was constructed from the percentage reductions of current amplitude by sequential concentrations.
On the technique in general: hERG is a cardiac potassium channel; its block is linked to QT prolongation.

hERG, sequence (Q12809 whole entry): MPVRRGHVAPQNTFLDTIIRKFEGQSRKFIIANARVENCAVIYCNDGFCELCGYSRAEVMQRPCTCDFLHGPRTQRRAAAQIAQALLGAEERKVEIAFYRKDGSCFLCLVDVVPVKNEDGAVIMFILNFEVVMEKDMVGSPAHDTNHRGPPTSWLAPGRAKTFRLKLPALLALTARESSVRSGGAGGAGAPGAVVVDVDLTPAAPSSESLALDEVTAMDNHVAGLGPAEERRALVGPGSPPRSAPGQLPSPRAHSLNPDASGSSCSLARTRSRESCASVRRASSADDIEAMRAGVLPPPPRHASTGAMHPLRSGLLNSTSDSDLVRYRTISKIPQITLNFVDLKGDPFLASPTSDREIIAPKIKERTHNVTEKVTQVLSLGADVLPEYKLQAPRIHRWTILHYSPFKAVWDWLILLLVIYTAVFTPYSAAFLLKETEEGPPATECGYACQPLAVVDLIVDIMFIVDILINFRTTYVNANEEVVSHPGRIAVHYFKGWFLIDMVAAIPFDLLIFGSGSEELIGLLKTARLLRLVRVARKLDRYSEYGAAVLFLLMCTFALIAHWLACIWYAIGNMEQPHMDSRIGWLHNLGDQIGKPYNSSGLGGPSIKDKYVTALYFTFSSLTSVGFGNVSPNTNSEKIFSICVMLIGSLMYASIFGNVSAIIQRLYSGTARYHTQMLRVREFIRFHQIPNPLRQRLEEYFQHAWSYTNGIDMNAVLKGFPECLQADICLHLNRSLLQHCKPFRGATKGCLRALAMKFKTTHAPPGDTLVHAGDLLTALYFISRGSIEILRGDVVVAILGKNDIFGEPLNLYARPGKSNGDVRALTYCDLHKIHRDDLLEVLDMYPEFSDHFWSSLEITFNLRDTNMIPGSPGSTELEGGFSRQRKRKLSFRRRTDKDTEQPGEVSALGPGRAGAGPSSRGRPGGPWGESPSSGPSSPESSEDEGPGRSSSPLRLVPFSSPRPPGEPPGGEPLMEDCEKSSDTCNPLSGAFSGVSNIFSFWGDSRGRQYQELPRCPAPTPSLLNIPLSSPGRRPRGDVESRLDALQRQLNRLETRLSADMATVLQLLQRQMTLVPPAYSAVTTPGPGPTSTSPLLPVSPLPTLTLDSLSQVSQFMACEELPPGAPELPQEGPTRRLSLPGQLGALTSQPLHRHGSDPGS

As usually defined, the EC50 is the concentration giving half of the maximal effect. Broadly, the AUC(0-t) is exposure summed from dosing to a finite time, without extrapolation to infinity. The low end stands for less exposure, the high end for more exposure. Broadly, the Cmax is the maximum level reached in the sampled fluid or tissue. A word on the bioavailability: it is dose-corrected exposure relative to a reference, in per cent. A high value points to much systemic uptake. As usually defined, the IC50 is the concentration needed to halve the response being measured. High values mean weaker potency in that assay, low ones greater potency in that assay. As for `COCCCOc1cc2c(cc1Cl)-c1c(F)c(=O)c(C(=O)O)cn1[C@H](C(C)(C)C)C2` (single isomer, unassigned) [Example 2A, (+)-6-(tert-butyl)-10-chloro-1-fluoro-9-(3-methoxypropoxy)-2-oxo-6,7-dihydro-2H-pyrido[2,1-a]isoquinoline-3-carboxylic acid], the “anti-HBV potency (in words)” value in data set [1] (HBV DNA) is “highly potent”. Besides, the EC50 in data set [1] is < 1 nM. Also, in data set [2] (20 mg/kg), the exposure AUC(0-t) worked out at 39600 ng·h/mL, the Cmax was 7550 ng/mL, the bioavailability worked out at 58.6% and the half-life is 4.47 h. Moreover, the “oral PK profile (in words)” value in data set [2] (oral dosing of 20 mg/kg, compared with Compound 203 in WO2015113990) is “better oral PK profile”. Moreover, the IC50 at 4 days in data set [3] was > 150000 nM. For the same compound, in data set [4], the “cytotoxicity (in words)” value is “less cytotoxicity”. The “IC10 (10% inhibitory concentration, hERG tail current)” value in data set [5] was 10000 nM. Besides, in data set [5] (hERG, compared with Compound 203 in WO2015113990), the “cardiac toxicity (in words)” value was “less cardiac toxicity”.

Regarding `COCCCOc1cc2c(cc1Cl)-c1cc(=O)c(C(=O)O)cn1[C@H](C(C)(C)C)C2` [Compound 203 in WO2015113990, reference compound], in data set [1], the EC50 is < 1 nM. In addition, in data set [2] (20 mg/kg), the AUC(0-t) is 16700 ng·h/mL, the concentration peaked (Cmax) at 2470 ng/mL, the bioavailability is 40% and the half-life is 3.73 h. In data set [3], half-maximal inhibition (IC50 at 4 days) was put at 120000 nM. The “IC10 (10% inhibitory concentration, hERG tail current)” value in data set [5] amounted to 1000 nM.

In data set [2] (10 mg/kg), `COCCCOc1cc2c(cc1OC)-c1c(F)c(=O)c(C(=O)O)cn1[C@H](C(C)(C)C)C2` [Example 13] came in with an AUC(0-t) of 5840 ng·h/mL and a bioavailability of 24.1%.

In data set [2] (10 mg/kg), `[2H]C([2H])([2H])Oc1cc2c(cc1OCCCOC)C[C@@H](C(C)(C)C)n1cc(C(=O)O)c(=O)c(F)c1-2` [Example 14, (S)-6-(tert-butyl)-1-fluoro-10-(methoxy-d3)-9-(3-methoxypropoxy)-2-oxo-6,7-dihydro-2H-pyrido[2,1-a]isoquinoline-3-carboxylic acid] yielded an exposure AUC(0-t) of 9050 ng·h/mL and a bioavailability of 61.1%. For the same compound, in data set [2] (oral dosing of 10 mg/kg, compared with Example 13), the “oral PK profile (in words)” value is “much better oral PK profile”.

Take `CC(C)OC(=O)OCOP(=O)(CO[C@H](C)Cn1cnc2c(N)ncnc21)OCOC(=O)OC(C)C` [Tenofovir Disoproxil Fumarate, tenofovir disoproxil fumarate, reference compound]: the EC50 in data set [1] stood at 29.3 nM.
